The results in this text go back to patent US10781215B2, “Heterobicyclic compounds useful as modulators of IL-12, IL-23 and/or IFNα responses” (BRISTOL-MYERS SQUIBB COMPANY, priority 2016, dated 2020).

SMILES strings stand for the structures.

Assay [1] deals with T1, recombinant human His-tagged Tyk2 pseudokinase domain (His-TVMV-Tyk2, 575-869) (Homo sapiens, UniProt P29597).
T1 construct: made in house
The assay can be described thus: Probe displacement assay (HTRF format). It is filed as binding. The note with it: fluorescein labeled probe, Tyk2 pseudokinase domain 0.5 nM. The method, then: To 10 μL 26 nM fluorescein labeled probe plus 0.2 nM anti-6×His-terbium labeled antibody (Medarex, labeled by Cisbio) in assay buffer (20 mM Hepes pH 7.5, 150 mM NaCl, 10 mM MgCl2, 2 mM DTT, 50 μg/mL BSA, and 0.015% Brij 35) was added 10 μL recombinant human His-tagged Tyk2 pseudokinase domain (His-TVMV-Tyk2, 575-869) to a final concentration of 0.5 nM. After 1 h at room temperature, the HTRF signal (ratio of fluorescence intensities at emission wavelengths for fluorescein acceptor at 520 nm and terbium donor at 495 nm) was measured on an Envision Plate Reader. Percent inhibition was calculated by comparison to a control without inhibitor and a control without protein. Dose response curves were generated to determine the concentration required for inhibiting 50% of the HTRF signal (EC50).
(TR-FRET usually uses a lanthanide donor and a delayed reading to cut background.)

Assay [2] relates to IL-23 stimulated Kit225 T cells (STAT-dependent luciferase reporter). The experiment in a line: Kit225 T cell assay, IL-23 stimulated STAT-dependent luciferase reporter. Particulars: 20 ng/mL human recombinant IL-23, 5-6 hours. It is filed as cell-based. The method, then: (§1) Kit225 T cells with a stably-integrated STAT-dependent luciferase reporter were plated in RPMI (Gibco) containing 10% heat-inactivated FBS (Gibco) and 100 U/mL PenStrep (Gibco). The cells were then stimulated with either 20 ng/mL human recombinant IL-23 or 200 U/mL human recombinant IFNα (PBL InterferonSource) for 5-6 hours. Luciferase expression was measured using the STEADY-GLO® Luciferase Assay System (Promega) according to the manufacturer's instructions. Inhibition data were calculated by comparison to no inhibitor control wells for 0% inhibition and non-stimulated control wells for 100% inhibition. Dose response curves were generated to determine the concentration required to inhibit 50% of cellular response (IC50) as derived by non-linear regression analysis.
(A reporter such as luciferase makes a cellular process visible.)

Assay [3] has as its system IFNα stimulated Kit225 T cells (STAT-dependent luciferase reporter). The assay can be described thus: Kit225 T cell assay, IFNα stimulated STAT-dependent luciferase reporter. It is filed as cell-based. Particulars: 200 U/mL human recombinant IFNα, 5-6 hours. The method, then:
as §1

Assay [4] concerns the target T2, human Tyk2 (amino acids 575-869, His-tagged) (Homo sapiens, UniProt P29597).
T2 construct: made in house
The assay can be described thus: Probe displacement assay (SPA format). It is filed as binding. Particulars: radiolabeled probe 40 nM, Tyk2 2.5 nM. The procedure: Probe Displacement Assay (SPA Format) The probe displacement assay is conducted as follows: In a […], test compounds along with recombinantly expressed His-tagged protein corresponding to amino acids 575-869 of human Tyk2 (sequence shown below) at 2.5 nM, 40 nM ((R)—N-(1-(3-(8-methyl-5-(methylamino)-8H-imidazo [4,5-d]thiazolo [5,4-b]pyridin-2-yl)phenyl)ethyl)-2-([^3H]methylsulfonyl)benzamide) (preparation described below) and 80 μg/mL Copper His-Tag scintillation proximity assay beads (Perkin Elmer, Catalog # RPNQ0095) in 50 mM HEPES, pH 7.5, containing 100 μg/mL bovine serum albumin and 5% DMSO were incubated for 30 minutes at room temperature. The amount of radiolabeled probe (preparation described below) bound to Tyk2 was then quantified by scintillation counting, and the inhibition by the test compound calculated by comparison to wells either with no inhibitor (0% inhibition) or without Tyk2 (100% inhibition). The EC50 value is defined as the concentration of test compound required to inhibit radiolabeled probe binding by 50%. Probe Displacement Assay (HTRF Format)

T1 sequence (P29597 with tags, fused parts or gaps): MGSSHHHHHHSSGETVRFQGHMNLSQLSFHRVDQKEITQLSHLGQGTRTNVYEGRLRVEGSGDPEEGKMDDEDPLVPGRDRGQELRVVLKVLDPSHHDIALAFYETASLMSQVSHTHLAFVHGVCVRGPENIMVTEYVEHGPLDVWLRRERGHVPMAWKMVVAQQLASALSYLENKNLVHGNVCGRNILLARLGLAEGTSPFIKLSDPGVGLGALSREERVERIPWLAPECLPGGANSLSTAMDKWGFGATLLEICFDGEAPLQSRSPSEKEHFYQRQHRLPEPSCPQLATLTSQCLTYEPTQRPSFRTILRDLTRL
T2 sequence (P29597 with tags, fused parts or gaps): as above

What is called EC50 is the concentration at which the effect is half-maximal. By IC50 is commonly meant the midpoint of a concentration-inhibition curve. For the molecule `Cc1nc2c(Nc3ncccc3S(C)(=O)=O)cc(NC(=O)C3CC3)nc2[nH]1` [Example 47, N-{7-[(3-methanesulfonylpyridin-2-yl)amino]-2-methyl-3H-imidazo[4,5-b]pyridin-5-yl}cyclopropanecarboxamide], in assay [1], the 50% effective concentration (EC50) amounted to 0.4 nM. Also, the IC50 in assay [2] amounted to 698 nM; in assay [3], 403 nM.

For the molecule `Cc1cnc(Nc2cc(Nc3ncccc3S(C)(=O)=O)c3nc(C)[nH]c3n2)cn1` [Example 48, 7-N-(3-methanesulfonylpyridin-2-yl)-2-methyl-5-N-(5-methylpyrazin-2-yl)-3H-imidazo[4,5-b]pyridine-5,7-diamine], the EC50 in assay [1] is 0.6 nM. The half-maximal inhibitory concentration (IC50) in assay [2] was determined as 742 nM; in assay [3], 307 nM.

Consider `Cc1nc2c(Nc3ncccc3S(C)(=O)=O)cc(Nc3ccc(N4CCOCC4)cn3)nc2[nH]1` [Example 50, 7-N-(3-methanesulfonylpyridin-2-yl)-2-methyl-5-N-[5-(morpholin-4-yl)pyridin-2-yl]-3H-imidazo[4,5-b]pyridine-5,7-diamine], for which the EC50 in assay [1] was 1.1 nM. The IC50 in assay [2] was found to be 367 nM; in assay [3], 267 nM.

`Cc1cccc(Nc2cc(Nc3ncccc3S(C)(=O)=O)c3nc(C)[nH]c3n2)n1` [Example 49, 7-N-(3-methanesulfonylpyridin-2-yl)-2-methyl-5-N-(6-methylpyridin-2-yl)-3H-imidazo[4,5-b]pyridine-5,7-diamine]: in assay [1], the EC50 came to 0.7 nM. For the same molecule, the IC50 in assay [2] came to 107 nM; in assay [3], 98 nM.

Regarding `Cc1nc2c(Nc3ncccc3S(C)(=O)=O)cc(Nc3cc(F)ccn3)nc2[nH]1` [Example 43, 5-N-(4-fluoropyridin-2-yl)-7-N-(3-methanesulfonylpyridin-2-yl)-2-methyl-3H-imidazo[4,5-b]pyridine-5,7-diamine], in assay [1], the half-maximal effective concentration (EC50) worked out at 0.8 nM. In addition, the IC50 in assay [2] was 53 nM; in assay [3] it was 45 nM.

As for `Cc1nc2c(Nc3ncccc3S(C)(=O)=O)cc(Nc3ccc(F)cn3)nc2[nH]1` [Example 41, 5-N-(5-fluoropyridin-2-yl)-7-N-(3-methanesulfonylpyridin-2-yl)-2-methyl-3H-imidazo[4,5-b]pyridine-5,7-diamine], the EC50 in assay [1] came out at 0.4 nM. In addition, the half-maximal inhibitory concentration (IC50) in assay [2] came out at 28 nM; in assay [3] it was 68 nM.

Consider `COc1ccc(Nc2cc(Nc3ncccc3S(C)(=O)=O)c3nc(C)[nH]c3n2)nc1` [Example 42, 7-N-(3-methanesulfonylpyridin-2-yl)-5-N-(5-methoxypyridin-2-yl)-2-methyl-3H-imidazo[4,5-b]pyridine-5,7-diamine], for which, in assay [1], the EC50 is 0.6 nM. Moreover, the half-maximal inhibitory concentration (IC50) is 75 nM in assay [2] and 67 nM in assay [3].

`COc1ccccc1Nc1cc(NC(=O)C2CC2)nc2[nH]c(C)nc12` [Example 35, N-{7-[(2-methoxyphenyl)amino]-2-methyl-3H-imidazo[4,5-b]pyridin-5-yl}cyclopropanecarboxamide] came in with a half-maximal effective concentration (EC50) in assay [4] of 814 nM. The IC50 came out at 3140 nM in assay [2] and 5130 nM in assay [3].

In assay [4], `Cc1nc2c(Nc3ccccc3S(C)(=O)=O)cc(Nc3ccn(C(C)C)n3)nc2[nH]1` [Example 30, 7-N-(2-methanesulfonylphenyl)-2-methyl-5-N-[1-(propan-2-yl)-1H-pyrazol-3-yl]-3H-imidazo[4,5-b]pyridine-5,7-diamine] returned a half-maximal effective concentration (EC50) of 58 nM. In addition, the IC50 in assay [2] came to 579 nM; in assay [3] it was 503 nM.

`COc1ccc(Nc2cc(Nc3ncccc3S(C)(=O)=O)c3nc(C)[nH]c3n2)nn1` [Example 45, 7-N-(3-methanesulfonylpyridin-2-yl)-5-N-(6-methoxypyridazin-3-yl)-2-methyl-3H-imidazo[4,5-b]pyridine-5,7-diamine]: the concentration for a half-maximal effect (EC50) in assay [1] stood at 1.2 nM. The figures for the IC50 in assay [2] and in assay [3] were 462 nM and 288 nM, respectively.

Consider `Cc1nc2c(Nc3ccccc3S(C)(=O)=O)cc(Nc3ccc(C#N)c(C)n3)nc2[nH]1` [Example 25, 6-({7-[(2-methanesulfonylphenyl)amino]-2-methyl-3H-imidazo[4,5-b]pyridin-5-yl}amino)-2-methylpyridine-3-carbonitrile], for which the EC50 in assay [4] was 7 nM. The concentration for half-maximal inhibition (IC50) in assay [2] amounted to 205 nM; in assay [3], 126 nM.

As to `Cc1nc2c(Nc3ccccc3S(C)(=O)=O)cc(Nc3ccc(N4CCOCC4)cn3)nc2[nH]1` [Example 5, 7-N-(2-methanesulfonylphenyl)-2-methyl-5-N-[5-(morpholin-4-yl)pyridin-2-yl]-3H-imidazo[4,5-b]pyridine-5,7-diamine], the 50% effective concentration (EC50) in assay [4] was found to be 11 nM. For the same molecule, the results for the half-maximal inhibitory concentration (IC50) in assay [2] and in assay [3] were 190 nM and 161 nM, respectively.

As to `Cc1ccnc(Nc2cc(Nc3ncccc3S(C)(=O)=O)c3nc(C)[nH]c3n2)c1` [Example 46, 7-N-(3-methanesulfonylpyridin-2-yl)-2-methyl-5-N-(4-methylpyridin-2-yl)-3H-imidazo[4,5-b]pyridine-5,7-diamine], the half-maximal effective concentration (EC50) in assay [1] stood at 1.8 nM. Besides, the IC50 was 2980 nM in assay [2] and 323 nM in assay [3].
